# Measurements taken from patent publication US12545685B2 (Daiichi Sankyo Company, Limited, priority 2011, dated 2026).
# pIC50: −log10 of the molar value.
# Biological target: T1, Mdm2/p53 binding (GST-Mdm2 / His-p53) (Homo sapiens, UniProt Q00987, L33E)
# T1 construct: Mdm2 partial protein having Mdm2 amino acids at positions 25 to 108
# Test: Mdm2/p53 binding assay (HTRF, His-p53 and GST-Mdm2)
# Details: His-p53 (aa 1-132) and GST-Mdm2 (aa 25-108, L33E) 6.25 nM each; 25°C, 1 hour; values given as ranges
# Procedure, shortened: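 His-p53 (aa 1–132) and GST-Mdm2 (aa 25–108, L33E) were prepared at 6.25 nM each in the protein dilution (20 mM HEPES pH 7.4, 150 mM NaCl, 0.1% BSA). Compound in 10% DMSO buffer and XL665 anti-His/Eu anti-GST antibodies (KF buffer) were added, with 1 h at 25 °C. The 665/620 nm TR-FRET ratio gave T/C and a sigmoid-fitted IC50.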
# T1 sequence (Q00987 25-108 L33E): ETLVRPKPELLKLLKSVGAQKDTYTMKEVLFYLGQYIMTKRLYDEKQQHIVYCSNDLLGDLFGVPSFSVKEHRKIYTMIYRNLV
row,Compound,pIC50
1,"COC[C@@H]1CC[C@@H](NC(=O)[C@@H]2NC3(CC(CF)(CF)C3)[C@@]3(C(=O)Nc4cc(Cl)ccc43)[C@H]2c2cccc(Cl)c2F)CO1 [Example 143, (3′R, 4′S,5′R)-6″-chloro-A′-(3-chloro-2-fluorophenyl)-3,3-bis(fluoromethyl)-N-[(3R,6S)-6-(methoxymethyl)tetrahydro-2H-pyran-3-yl]-2″-oxo-1″,2″-dihydrodispiro[cyclobutane-1,2′-pyrrolidine-3′,3″-indole]-5′-carboxamide]",7.00 to 7.30
2,"CN(C)C(=O)[C@H]1C[C@H](NC(=O)[C@@H]2NC3(CC(CF)(CF)C3)[C@@]3(C(=O)Nc4cc(Cl)ccc43)[C@H]2c2cccc(Cl)c2F)C1 [Example 145, (3′R, 4′S,5′R)-6″-chloro-4′-(3-chloro-2-fluorophenyl)-N-[trans-3-(dimethylcarbamoyl)cyclobutyl]-3,3-bis(fluoromethyl)-2″-oxo-1″,2″-dihydrodispiro[cyclobutane-1,2′-pyrrolidine-3′,3″-indole]-5′-carboxamide]",7.00 to 7.30
3,"CN(C)C(=O)[C@H]1CC[C@H](NC(=O)[C@@H]2NC3(CC(CF)(CF)C3)[C@@]3(C(=O)Nc4cc(Cl)ccc43)[C@H]2c2cccc(Cl)c2F)CC1 [Example 148, (3′R, 4′S,5′R)-6″-chloro-4′-(3-chloro-2-fluorophenyl)-N-[trans-4-(dimethylcarbamoyl)cyclohexyl]-3,3-bis(fluoromethyl)-2″-oxo-1″,2″-dihydrodispiro[cyclobutane-1,2′-pyrrolidine-3′,3″-indole]-5′-carboxamide]",7.30 to 9.00
4,"NC(=O)C[C@@H]1CC[C@@H](NC(=O)[C@@H]2NC3(CC(CF)(CF)C3)[C@@]3(C(=O)Nc4cc(Cl)ccc43)[C@H]2c2cccc(Cl)c2F)CO1 [Example 149, (3′R, 4′S,5′R)—N-[(3R,6S)-6-(2-amino-2-oxoethyl)tetrahydro-2H-pyran-3-yl]-6″-chloro-4′-(3-chloro-2-fluorophenyl)-3,3-bis(fluoromethyl)-2″-oxo-1″,2″-dihydrodispiro[cyclobutane-1,2′-pyrrolidine-3′,3″-indole]-5′-carboxamide]",7.00 to 7.30
5,"CNC(=O)C[C@@H]1CC[C@@H](NC(=O)[C@@H]2NC3(CCC(C)(C)CC3)[C@@]3(C(=O)Nc4cc(Cl)ccc43)[C@H]2c2ccnc(Cl)c2F)CO1 [Example 150, (3′R, 4′S,5′R)-6″-chloro-4′-(2-chloro-3-fluoropyridin-4-yl)-4,4-dimethyl-N-{(3R,6S)-6-[2-(methylamino)-2-oxoethyl]tetrahydro-2H-pyran-3-yl}-2″-oxo-1″,2″-dihydrodispiro[cyclohexane-1,2′-pyrrolidine-3′,3″-indole]-5′-carboxamide]",7.30 to 9.00
6,"CNC(=O)C[C@@H]1CC[C@@H](NC(=O)[C@@H]2NC3(CC(CF)(CF)C3)[C@@]3(C(=O)Nc4cc(Cl)ccc43)[C@H]2c2cccc(Cl)c2F)CO1 [Example 151, (3′R, 4′S,5′R)-6″-chloro-4′-(3-chloro-2-fluorophenyl)-3,3-bis(fluoromethyl)-N-{(3R,6S)-6-[2-(methylamino)-2-oxoethyl]tetrahydro-2H-pyran-3-yl}=2″-oxo-1″,2″-dihydrodispiro[cyclobutane-1,2′-pyrrolidine-3′,3′-indole]-5′-carboxamide]",7.30 to 9.00
7,"NC(=O)[C@@H]1CC[C@@H](NC(=O)[C@@H]2NC3(CC(CF)(CF)C3)[C@@]3(C(=O)Nc4cc(Cl)ccc43)[C@H]2c2ccnc(Cl)c2F)CO1 [Example 158, (3′R, 4′S,5′R)—N-[(3R,6S)-6-carbamoyltetrahydro-2H-pyran-3-yl]-6″-chloro-4′-(2-chloro-3-fluoropyridin-4-yl)-3,3-bis(fluoromethyl)-2″-oxo-1″,2″-dihydrodispiro[cyclobutane-1,2′-pyrrolidine-3′,3″-indole]-5′-carboxamide]",7.30 to 9.00
8,COCc1nnc([C@H]2CC[C@H](NC(=O)[C@@H]3NC4(CCC(C)(C)CC4)[C@@]4(C(=O)Nc5cc(Cl)ccc54)[C@H]3c3ccnc(Cl)c3F)CC2)o1 [Example 159],7.00 to 7.30
9,"CN(C)C(=O)[C@@H]1CC[C@@H](NC(=O)[C@@H]2NC3(CC(CF)(CF)C3)[C@@]3(C(=O)Nc4cc(Cl)ccc43)[C@H]2c2ccnc(Cl)c2F)CO1 [Example 167, (3′R, 4′S,5′R)-6″-chloro-4′-(2-chloro-3-fluoropyridin-4-yl)-N-[(3R,6S)-6-(dimethylcarbamoyl)tetrahydro-2H-pyran-3-yl]-3,3-bis(fluoromethyl)-2″-oxo-1′″, 2′″-dihydrodispiro[cyclobutane-1,2′-pyrrolidine-3′,3″-indole]-5″-carboxamide]",7.30 to 9.00
10,"C[C@@H](O)[C@@H]1CC[C@@H](NC(=O)[C@@H]2NC3(CC(CF)(CF)C3)[C@@]3(C(=O)Nc4cc(Cl)ccc43)[C@H]2c2ccnc(Cl)c2F)CO1 [Example 170, (3′R, 4′S,5′R)-6″-chloro-4′-(2-chloro-3-furopyridinyl-4-yl)-3,3-bis(fluoromethyl)-N-{(3R,6S)-6-[(1R)-1-hydroxyethyl]tetrahydro-2H-pyran-3-yl}-2″-oxo-1″,2″-dihydrodispiro[cyclobutane-1,2′-pyrrolidine-3′,3′-indole]-5′-carboxamide]",7.00 to 7.30
11,"Cn1cncc1CNC(=O)[C@@H]1NC2(CCC(C)(C)CC2)[C@@]2(C(=O)Nc3cc(Cl)ccc32)[C@H]1c1ccnc(Cl)c1F [Example 171, (3′R, 4′S, S′R)-6″-chloro-4′-(2-chloro-3-fluoropyridin-4-yl)-4,4-dimethyl-N-[(1-methyl-1H-imidazol-5-yl)methyl]-2″-oxo-1″,2″-dihydrodispiro[cyclohexane-1,2″-pyrrolidine-3′,3″-indole]-5′-carboxamide]",7.00 to 7.30
12,"O=C(N[C@@H]1CC[C@@H](CO)OC1)[C@@H]1NC2(CC(CF)(CF)C2)[C@@]2(C(=O)Nc3cc(Cl)ccc32)[C@H]1c1ccc(F)c(Cl)c1F [Example 172, (3′R,4′S,5′R)-6″-chloro-4′-(3-chloro-2,4-difluorophenyl)-3,3-bis(fluoromethyl)-N-[(3R,6S)-6-(hydroxymethyl)tetrahydro-2H-pyran-3-yl]-2′-oxo-1″,2″-dihydrodispiro[cyclobutane-1,2′-pyrrolidine-3′,3″-indole]-5′-carboxamide]",7.30 to 9.00
13,"COC(=O)[C@@H]1CC[C@@H](NC(=O)[C@@H]2NC3(CCC(C)(C)CC3)[C@@]3(C(=O)Nc4cc(Cl)ccc43)[C@H]2c2ccnc(Cl)c2F)CO1 [Example 173, Methyl (2S,5R)-5-({[(3′S,4′S,5′R)-6″-chloro-4′-(2-chloro-3-fluoropyridin-4-yl)-4,4-dimethyl-2″-oxo-1″,2″-dihydrodispiro[cyclohexane-1,2′-pyrrolidine-3′,3′-indole]-5′-yl]carbonyl}amino)tetrahydro-2H-pyran-2-carboxylate]",7.00 to 7.30

# Now from value to compound:
row,pIC50,Compound
1,7.30 to 9.00,"CN(C)C(=O)C[C@@H]1CC[C@@H](NC(=O)[C@@H]2NC3(CCC(C)(C)CC3)[C@@]3(C(=O)Nc4cc(Cl)ccc43)[C@H]2c2ccnc(Cl)c2F)CO1 [Example 152, (3′R, 4′S,5′R)-6″-chloro-4′-(2-chloro-3-fluoropyridin-4-yl)-N-{(3R,6S)-6-[2-(dimethylamino)-2-oxoethyl]tetrahydro-2H-pyran-3-yl}-4,4-dimethyl-2″-oxo-1″,2″-dihydrodispiro[cyclohexane-1,2′-pyrrolidine-3′,3″-indole]-5′-carboxamide]"
2,7.30 to 9.00,"CN(C)C(=O)C[C@@H]1CC[C@@H](NC(=O)[C@@H]2NC3(CC(CF)(CF)C3)[C@@]3(C(=O)Nc4cc(Cl)ccc43)[C@H]2c2cccc(Cl)c2F)CO1 [Example 153, (3′R, 4′S,5′R)-6″-chloro-4′-(3-chloro-2-fluorophenyl)-N-{(3R,6S)-6-[2-(dimethylamino)-2-oxoethyl]tetrahydro-2H-pyran-3-yl}-3,3-bis(fluoromethyl)-2″-oxo-1″,2″-dihydrodispiro[cyclobutane-1,2′-pyrrolidine-3′,3′-indole]-5′-carboxamide]"
3,7.00 to 7.30,"CC1(C)CCC2(CC1)N[C@@H](C(=O)N[C@H]1CC[C@H](c3nncs3)CC1)[C@H](c1ccnc(Cl)c1F)[C@]21C(=O)Nc2cc(Cl)ccc21 [Example 155, (3′R, 4′S,5′R)-6″-chloro-4′-(2-chloro-3-fluoropyridin-4-yl)-4,4-dimethyl-2″-oxo-N-[trans-4-(1,3,4-thiadiazol-2-yl)cyclohexyl]-1″,2″-dihydrodispiro[cyclohexane-1,2′-pyrrolidine-3′,3″-indole]-5′-carboxamide]"
4,7.00 to 7.30,"O=C(N[C@@H]1CC[C@@H](CO)OC1)[C@@H]1NC2(CC(CF)(CF)C2)[C@@]2(C(=O)Nc3cc(Cl)c(F)cc32)[C@H]1c1ccnc(Cl)c1F [Example 163, (3′R, 4′S,5′R)-6″-chloro-4′-(2-chloro-3-fluoropyridin-4-yl)-5″-fluoro-3,3-bis(fluoromethyl)-N-[(3R,6S)-6-(hydroxymethyl)tetrahydro-2H-pyran-3-yl]-2″-oxo-1″,2″-dihydrodispiro[cyclobutane-1,2′-pyrrolidine-3′,3″-indole]-5′-carboxamide]"
5,7.00 to 7.30,"CC1(C)CCC2(CC1)N[C@@H](C(=O)N[C@@H]1CC[C@@H](CNS(C)(=O)=O)OC1)[C@H](c1ccnc(Cl)c1F)[C@]21C(=O)Nc2cc(Cl)ccc21 [Example 166, (3′R, 4′S,5′R)-6″-chloro-4′-(2-chloro-3-fluoropyridin-4-yl)-4,4-dimethyl-N-[(3R,6S)-6-{[(methylsulfonyl)amino]methyl}tetrahydro-2H-pyran-3-yl]-2″-oxo-1″,2″-dihydrodispiro[cyclohexane-1,2′-pyrrolidine-3′,3″-indole]-5′-carboxamide]"
6,7.00 to 7.30,"O=C(N[C@@H]1CC[C@@H](CO)OC1)[C@@H]1NC2(CC(CF)(CF)C2)[C@@]2(C(=O)Nc3cc(Cl)ccc32)[C@H]1c1cc(Cl)cc(Cl)c1 [Example 169, (3′R, 4′R, 5′R)-6″-chloro-4′-(3,5-dichlorophenyl)-3,3-bis(fluoromethyl)-N-[(3R,6S)-6-(hydroxymethyl)tetrahydro-2H-pyran-3-yl]-2″-oxo-1″,2″-dihydrodispiro[cyclobutane-1,2′-pyrrolidine-3′,3″-indole]-5′-carboxamide]"
